Several values for one entry are separate records, joined by “and”; a condition that tells them apart may be missing. Identical values can stand only once.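 Cells were grown in 96-well plates and exposed to each compound for 48 hours at five concentrations; endpoints were interpolated linearly between bracketing concentrations, or set to the highest concentration if not reached. GI50 = concentration required for 50% inhibition of growth. The concentration for full growth arrest is given as TGI.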

Some test systems named below: HS 578T breast; MOLT-4 leukemia; U251 CNS; LOX IMVI melanoma; EKVX NSCLC; NCI-H23 lung; HCT-116 colon; MALME-3M melanoma; NCI/ADR-RES ovarian; COLO 205 colon.
What all share (test): inhibition of tumour cell growth, NCI panel, 48 h

For `C=C(C)[C@@H]1CC[C@]2(C(=O)NCCNCCNCCN)CC[C@]3(C)[C@H](CC[C@@H]4[C@@]5(C)CCC(=O)C(C)(C)[C@@H]5CC[C@]43C)[C@@H]12`, the GI50 in the experiment on HS 578T breast was 8.3 µM; with MOLT-4 leukemia, 6.96 µM; in the experiment on U251 CNS it was 7.34 µM; with LOX IMVI melanoma it was 8.72 µM; in the experiment with EKVX NSCLC it was 7.34 µM; in the experiment with NCI-H23 lung it was 9.14 µM. Further, the GI50 in the experiment with HCT-116 colon was 6.65 µM; in the experiment on MALME-3M melanoma, 7.4 µM; in the experiment on NCI/ADR-RES ovarian it was 8.41 µM; in the experiment on COLO 205 colon it was 8.74 µM. The TGI in the experiment with HS 578T breast came to 19.2 µM; with MOLT-4 leukemia it was 31.1 µM; in the experiment on U251 CNS, 14.6 µM; in the experiment with LOX IMVI melanoma, 16.6 µM; with EKVX NSCLC it was 14 µM; in the experiment on NCI-H23 lung it was 17.4 µM. In addition, the TGI amounted to 14.9 µM with HCT-116 colon, 16.5 µM in the experiment on MALME-3M melanoma, 16.6 µM with NCI/ADR-RES ovarian and 19 µM in the experiment on COLO 205 colon.

On to `COc1ccc2c(c1)C(=O)c1c-2n(CCCN2CCOCC2)c(=O)c2cc([N+](=O)[O-])ccc12`, for which the GI50 in the experiment with HS 578T breast is 0.719 µM; in the experiment on MOLT-4 leukemia, less than 0.01 µM; in the experiment with U251 CNS, less than 0.01 µM; in the experiment with LOX IMVI melanoma, less than 0.01 µM; with EKVX NSCLC, 0.068 µM; in the experiment on NCI-H23 lung, less than 0.01 µM. In addition, the GI50 was less than 0.01 µM in the experiment on HCT-116 colon, less than 0.0117 µM in the experiment on MALME-3M melanoma, less than 0.01 µM in the experiment on NCI/ADR-RES ovarian and less than 0.0111 µM in the experiment with COLO 205 colon. Further, the TGI is 22.3 µM with HS 578T breast; 0.0598 µM in the experiment on U251 CNS; 0.0127 µM with LOX IMVI melanoma; 12 µM in the experiment with EKVX NSCLC; less than 0.01 µM in the experiment on NCI-H23 lung; 0.0454 µM in the experiment on HCT-116 colon. Moreover, the TGI is 0.779 µM in the experiment with MALME-3M melanoma, less than 0.0279 µM in the experiment on NCI/ADR-RES ovarian and more than 45.4 µM in the experiment with COLO 205 colon.

As for `COc1cc(/C=C2\C(=O)Nc3ccccc32)cc(OC)c1OC`, the GI50 in the experiment with HS 578T breast is 28.7 µM; in the experiment on MOLT-4 leukemia, 12 µM; with U251 CNS, 10.9 µM; with LOX IMVI melanoma, 16.5 µM; in the experiment on EKVX NSCLC it was 18.8 µM; in the experiment with NCI-H23 lung it was 17.9 µM. For the same compound, the GI50 in the experiment on HCT-116 colon is 17.3 µM; with MALME-3M melanoma it was 67 µM; in the experiment with NCI/ADR-RES ovarian, 11.6 µM; in the experiment with COLO 205 colon it was 14.5 µM. The TGI is more than 100 µM in the experiment on HS 578T breast; 71.3 µM in the experiment with MOLT-4 leukemia; 63.5 µM with U251 CNS; more than 100 µM with LOX IMVI melanoma; more than 100 µM in the experiment on EKVX NSCLC; 68.3 µM in the experiment with NCI-H23 lung. Also, the TGI with HCT-116 colon was more than 100 µM; in the experiment with MALME-3M melanoma it was more than 100 µM; with NCI/ADR-RES ovarian it was 45.6 µM; with COLO 205 colon, 47.9 µM.

`O=C1C=CC(=O)c2c1ncc1c2nc2sccn21`: the GI50 with HS 578T breast is 12.7 µM; in the experiment with MOLT-4 leukemia it was 3.57 µM; in the experiment with U251 CNS, 18.3 µM; with LOX IMVI melanoma it was 29.9 µM; in the experiment with EKVX NSCLC, 20.2 µM; with NCI-H23 lung, 22.2 µM. Moreover, the GI50 in the experiment on HCT-116 colon was 12.5 µM; in the experiment on MALME-3M melanoma, 12.7 µM; with NCI/ADR-RES ovarian, 29.3 µM; in the experiment on COLO 205 colon, 40.3 µM. Moreover, the TGI is 50.8 µM in the experiment on HS 578T breast; more than 100 µM in the experiment on MOLT-4 leukemia; 43.9 µM in the experiment with U251 CNS; more than 100 µM with LOX IMVI melanoma; 44.7 µM with EKVX NSCLC; 83.7 µM in the experiment on NCI-H23 lung. Besides, the TGI with HCT-116 colon was 37.8 µM; with MALME-3M melanoma it was 26.5 µM; in the experiment with NCI/ADR-RES ovarian it was more than 100 µM; in the experiment on COLO 205 colon, more than 100 µM.

In the case of `Cc1ccccc1C(C(=O)NC1CCCCC1)N(C(=O)Cn1ccnc1C)c1cccc(F)c1` (stereo not given), the GI50 in the experiment with HS 578T breast was 28.2 µM; in the experiment with MOLT-4 leukemia it was more than 100 µM; in the experiment with U251 CNS, more than 52.1 µM; in the experiment on LOX IMVI melanoma, 44 µM; with EKVX NSCLC, more than 100 µM; in the experiment with NCI-H23 lung, more than 58 µM. The GI50 with HCT-116 colon was 46.2 µM; in the experiment on MALME-3M melanoma, more than 52.8 µM; with NCI/ADR-RES ovarian, more than 100 µM; in the experiment with COLO 205 colon it was more than 92.1 µM. Further, the TGI in the experiment with HS 578T breast, in the experiment on MOLT-4 leukemia, in the experiment on U251 CNS, with LOX IMVI melanoma, in the experiment on EKVX NSCLC and in the experiment on NCI-H23 lung was more than 100 µM throughout. For the same compound, the TGI with HCT-116 colon, in the experiment on MALME-3M melanoma, with NCI/ADR-RES ovarian and in the experiment on COLO 205 colon was more than 100 µM throughout.

Regarding `Cc1cc(NC(=O)NC(=O)c2ccccc2NC(=O)CN)ccc1Oc1ncc(Br)cn1`, the TGI in the experiment on HS 578T breast was 4.69 µM; with MOLT-4 leukemia, 75 µM and > 100 µM; with U251 CNS, 15 µM and 20.6 µM; with LOX IMVI melanoma, 34.1 µM and > 100 µM; with EKVX NSCLC it was 39.1 µM and 49.2 µM; with NCI-H23 lung, 15.5 µM and 13.8 µM. For the same compound, the TGI is 26.1 µM and > 100 µM with HCT-116 colon; 75 µM and 89.6 µM with MALME-3M melanoma; 12.7 µM in the experiment with NCI/ADR-RES ovarian; 2.24 µM in the experiment with COLO 205 colon. Also, the GI50 in the experiment on MOLT-4 leukemia was 0.0807 µM; with U251 CNS, 0.409 µM; in the experiment with LOX IMVI melanoma, 0.624 µM; with NCI-H23 lung it was 0.331 µM; in the experiment with HCT-116 colon, 0.43 µM; with MALME-3M melanoma, less than 0.01 µM.

For `CNCCOC(=O)/C=C1/CCC2C(C(O)CC3C(C)(C(=O)OC)CCCC23C)C1C` (stereo not given), the GI50 in the experiment with HS 578T breast is less than 0.01 µM; with MOLT-4 leukemia, less than 0.01 µM; in the experiment with U251 CNS it was 0.0183 µM; in the experiment on LOX IMVI melanoma, 0.0192 µM; in the experiment on EKVX NSCLC, less than 0.0136 µM; with NCI-H23 lung, 0.0153 µM. The GI50 with HCT-116 colon is 0.0158 µM; in the experiment on MALME-3M melanoma, 0.0253 µM; with NCI/ADR-RES ovarian it was 0.0185 µM; with COLO 205 colon, 0.0348 µM. Further, the TGI in the experiment with HS 578T breast amounted to 0.298 µM; in the experiment with MOLT-4 leukemia, 0.0203 µM; with U251 CNS, 0.0341 µM; in the experiment on LOX IMVI melanoma it was 0.042 µM; in the experiment with EKVX NSCLC it was 0.0331 µM; in the experiment on NCI-H23 lung it was 0.0355 µM. Further, the TGI in the experiment with HCT-116 colon stood at 0.0311 µM; in the experiment with MALME-3M melanoma, 0.0599 µM; with NCI/ADR-RES ovarian it was 0.0378 µM; in the experiment with COLO 205 colon it was 0.0958 µM.

(Values after PubChem BioAssay (NCI).)
